Key:
Assay in all cases: KinaseProfiler Assay
CDK5/p25(h) = CDK5/p25(h) (Homo sapiens, UniProt Q00535)
Syk(h) = Syk(h) (Homo sapiens, UniProt P43405)
PAK2(h) = PAK2(h) (Homo sapiens, UniProt Q13177)
CaMKIIδ(h) = CaMKIIδ(h) (Homo sapiens, UniProt Q13557)
Axl(h) = target: T1, Axl(h) (Homo sapiens, UniProt P30530)
T1 sequence (P30530 26-894): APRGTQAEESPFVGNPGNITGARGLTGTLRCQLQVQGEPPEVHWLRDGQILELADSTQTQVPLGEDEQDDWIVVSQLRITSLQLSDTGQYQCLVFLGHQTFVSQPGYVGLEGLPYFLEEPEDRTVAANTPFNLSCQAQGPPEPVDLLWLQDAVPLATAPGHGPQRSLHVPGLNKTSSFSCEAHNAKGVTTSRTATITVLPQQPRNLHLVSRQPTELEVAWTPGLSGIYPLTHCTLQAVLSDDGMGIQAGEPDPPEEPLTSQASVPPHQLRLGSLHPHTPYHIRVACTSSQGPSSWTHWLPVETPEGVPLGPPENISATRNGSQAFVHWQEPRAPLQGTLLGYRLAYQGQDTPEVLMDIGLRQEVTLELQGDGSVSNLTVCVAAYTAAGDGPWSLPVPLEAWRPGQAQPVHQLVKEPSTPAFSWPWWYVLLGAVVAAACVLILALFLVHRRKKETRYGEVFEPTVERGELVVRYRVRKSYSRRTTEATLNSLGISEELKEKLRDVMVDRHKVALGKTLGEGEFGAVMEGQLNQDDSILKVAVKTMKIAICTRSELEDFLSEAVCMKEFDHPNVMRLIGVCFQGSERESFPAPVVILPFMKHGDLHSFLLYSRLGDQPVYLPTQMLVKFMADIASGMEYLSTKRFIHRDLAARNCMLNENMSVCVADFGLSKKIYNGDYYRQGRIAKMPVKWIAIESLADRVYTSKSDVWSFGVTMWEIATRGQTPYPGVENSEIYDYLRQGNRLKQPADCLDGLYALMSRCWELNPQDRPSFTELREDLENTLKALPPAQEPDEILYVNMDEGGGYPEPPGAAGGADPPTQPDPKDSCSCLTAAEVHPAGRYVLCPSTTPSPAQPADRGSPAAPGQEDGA

CDK1/cyclinB(h) = CDK1/cyclinB(h) (Homo sapiens, UniProt P06493)
Sequence of CDK1/cyclinB(h) (P06493 whole entry): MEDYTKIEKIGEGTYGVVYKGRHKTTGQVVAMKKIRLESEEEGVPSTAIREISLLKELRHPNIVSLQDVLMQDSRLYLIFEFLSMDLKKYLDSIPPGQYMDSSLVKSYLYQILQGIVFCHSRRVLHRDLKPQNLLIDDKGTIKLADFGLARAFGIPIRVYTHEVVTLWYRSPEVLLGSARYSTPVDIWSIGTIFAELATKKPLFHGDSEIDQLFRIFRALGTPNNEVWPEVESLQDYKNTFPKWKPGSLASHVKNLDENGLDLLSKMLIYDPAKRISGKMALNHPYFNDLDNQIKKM
Sequence of CDK1/cyclinB(h) (P14635 whole entry partner): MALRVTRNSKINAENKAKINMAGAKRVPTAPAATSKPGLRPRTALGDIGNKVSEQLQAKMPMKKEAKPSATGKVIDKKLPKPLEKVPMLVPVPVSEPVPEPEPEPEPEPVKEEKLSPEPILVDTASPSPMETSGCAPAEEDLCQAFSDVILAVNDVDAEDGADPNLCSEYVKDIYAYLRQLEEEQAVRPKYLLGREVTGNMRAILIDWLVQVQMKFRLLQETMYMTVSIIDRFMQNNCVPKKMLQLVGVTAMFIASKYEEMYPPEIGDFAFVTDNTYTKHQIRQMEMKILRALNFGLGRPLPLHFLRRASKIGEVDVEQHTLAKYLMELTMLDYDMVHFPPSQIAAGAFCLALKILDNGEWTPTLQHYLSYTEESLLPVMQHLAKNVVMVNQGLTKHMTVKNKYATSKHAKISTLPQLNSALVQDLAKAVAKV

EGFR(T790M)(h) = EGFR(T790M)(h) (Homo sapiens, UniProt P00533, T790M)
Sequence of EGFR(T790M)(h) (P00533 25-1210 T790M): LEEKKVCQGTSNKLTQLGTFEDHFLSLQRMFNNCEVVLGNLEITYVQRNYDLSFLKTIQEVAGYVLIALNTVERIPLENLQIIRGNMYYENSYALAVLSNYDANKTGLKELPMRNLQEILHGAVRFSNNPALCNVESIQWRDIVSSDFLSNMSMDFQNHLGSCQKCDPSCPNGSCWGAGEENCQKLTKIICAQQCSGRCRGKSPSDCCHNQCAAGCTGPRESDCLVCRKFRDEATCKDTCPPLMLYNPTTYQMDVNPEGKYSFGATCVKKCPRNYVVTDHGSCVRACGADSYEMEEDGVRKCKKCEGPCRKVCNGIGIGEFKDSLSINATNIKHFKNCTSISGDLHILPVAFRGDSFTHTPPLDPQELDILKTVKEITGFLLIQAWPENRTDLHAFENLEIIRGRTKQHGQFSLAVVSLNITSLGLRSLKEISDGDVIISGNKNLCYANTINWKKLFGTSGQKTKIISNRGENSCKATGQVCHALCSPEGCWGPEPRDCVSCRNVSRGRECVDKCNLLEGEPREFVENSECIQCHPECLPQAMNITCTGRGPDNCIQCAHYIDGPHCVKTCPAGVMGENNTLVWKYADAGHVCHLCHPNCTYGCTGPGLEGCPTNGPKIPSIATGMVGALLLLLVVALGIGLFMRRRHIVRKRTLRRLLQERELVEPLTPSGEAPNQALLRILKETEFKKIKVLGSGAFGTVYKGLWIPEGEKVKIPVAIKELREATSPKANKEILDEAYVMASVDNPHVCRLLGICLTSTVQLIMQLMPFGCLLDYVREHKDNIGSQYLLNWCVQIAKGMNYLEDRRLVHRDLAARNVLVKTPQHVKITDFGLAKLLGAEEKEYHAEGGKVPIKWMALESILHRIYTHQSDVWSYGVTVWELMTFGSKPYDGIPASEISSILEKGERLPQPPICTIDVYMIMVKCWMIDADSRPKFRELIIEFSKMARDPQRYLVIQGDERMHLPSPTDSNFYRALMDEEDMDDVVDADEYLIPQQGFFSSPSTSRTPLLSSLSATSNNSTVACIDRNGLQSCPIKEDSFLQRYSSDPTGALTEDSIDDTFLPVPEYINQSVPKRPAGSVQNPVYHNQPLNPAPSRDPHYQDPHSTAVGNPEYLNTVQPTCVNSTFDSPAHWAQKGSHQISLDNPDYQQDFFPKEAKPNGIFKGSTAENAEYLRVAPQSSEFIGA

MSK1(h) = MSK1(h) (Homo sapiens, UniProt O75582)
Sequence of MSK1(h) (O75582 whole entry): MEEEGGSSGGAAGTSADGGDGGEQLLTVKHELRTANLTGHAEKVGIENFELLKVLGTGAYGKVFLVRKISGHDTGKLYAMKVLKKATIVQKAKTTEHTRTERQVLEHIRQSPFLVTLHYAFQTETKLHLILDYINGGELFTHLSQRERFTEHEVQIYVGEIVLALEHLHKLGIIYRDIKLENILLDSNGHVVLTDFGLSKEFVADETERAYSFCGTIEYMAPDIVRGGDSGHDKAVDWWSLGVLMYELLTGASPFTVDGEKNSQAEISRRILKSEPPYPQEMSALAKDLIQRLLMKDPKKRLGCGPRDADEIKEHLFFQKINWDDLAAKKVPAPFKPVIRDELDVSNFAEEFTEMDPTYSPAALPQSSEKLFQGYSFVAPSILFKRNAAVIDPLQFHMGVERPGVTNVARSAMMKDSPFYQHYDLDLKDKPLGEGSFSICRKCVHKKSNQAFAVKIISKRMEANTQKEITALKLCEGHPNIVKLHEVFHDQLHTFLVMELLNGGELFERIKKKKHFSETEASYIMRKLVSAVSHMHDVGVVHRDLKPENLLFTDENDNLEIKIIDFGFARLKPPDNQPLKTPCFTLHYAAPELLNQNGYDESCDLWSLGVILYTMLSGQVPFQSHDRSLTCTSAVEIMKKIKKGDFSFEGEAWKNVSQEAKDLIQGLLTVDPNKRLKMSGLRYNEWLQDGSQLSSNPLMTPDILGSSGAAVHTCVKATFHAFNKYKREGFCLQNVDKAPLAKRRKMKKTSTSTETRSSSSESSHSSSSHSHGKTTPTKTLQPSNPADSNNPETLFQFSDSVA

MAPKAP-K2(h) = MAPKAP-K2(h) (Homo sapiens, UniProt P49137)
Sequence of MAPKAP-K2(h) (P49137 whole entry): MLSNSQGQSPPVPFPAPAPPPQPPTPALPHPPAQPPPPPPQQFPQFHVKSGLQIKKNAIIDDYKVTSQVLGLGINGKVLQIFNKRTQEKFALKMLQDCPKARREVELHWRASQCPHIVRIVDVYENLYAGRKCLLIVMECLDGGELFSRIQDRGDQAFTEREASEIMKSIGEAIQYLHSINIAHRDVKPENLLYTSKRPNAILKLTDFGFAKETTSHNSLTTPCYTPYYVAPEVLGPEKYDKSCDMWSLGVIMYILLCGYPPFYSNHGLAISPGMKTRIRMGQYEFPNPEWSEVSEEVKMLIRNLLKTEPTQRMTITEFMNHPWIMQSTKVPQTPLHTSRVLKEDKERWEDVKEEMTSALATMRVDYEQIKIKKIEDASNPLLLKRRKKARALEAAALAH

Rsk3(h) = Rsk3(h) (Homo sapiens, UniProt Q15349)
Sequence of Rsk3(h) (Q15349 whole entry): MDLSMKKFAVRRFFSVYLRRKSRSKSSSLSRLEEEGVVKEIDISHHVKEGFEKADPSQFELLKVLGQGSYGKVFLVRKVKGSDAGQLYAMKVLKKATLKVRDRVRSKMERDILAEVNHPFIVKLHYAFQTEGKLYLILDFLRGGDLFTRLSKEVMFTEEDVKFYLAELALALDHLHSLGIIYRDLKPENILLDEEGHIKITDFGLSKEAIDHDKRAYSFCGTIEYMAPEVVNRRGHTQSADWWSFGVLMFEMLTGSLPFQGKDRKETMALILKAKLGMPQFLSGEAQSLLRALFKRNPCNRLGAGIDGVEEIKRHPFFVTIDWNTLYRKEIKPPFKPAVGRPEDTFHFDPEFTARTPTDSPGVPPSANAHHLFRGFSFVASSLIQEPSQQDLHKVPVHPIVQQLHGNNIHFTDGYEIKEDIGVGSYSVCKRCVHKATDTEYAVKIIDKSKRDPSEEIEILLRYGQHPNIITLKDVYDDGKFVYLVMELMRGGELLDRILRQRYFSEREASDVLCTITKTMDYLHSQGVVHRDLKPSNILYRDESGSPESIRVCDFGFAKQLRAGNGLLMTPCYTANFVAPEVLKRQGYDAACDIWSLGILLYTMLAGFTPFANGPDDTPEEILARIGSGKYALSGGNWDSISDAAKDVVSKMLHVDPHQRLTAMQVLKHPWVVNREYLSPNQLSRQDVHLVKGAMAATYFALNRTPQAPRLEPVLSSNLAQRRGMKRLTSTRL

CaMKIV(h) = target: T2, CaMKIV(h) (Homo sapiens, UniProt Q16566)
T2 sequence (Q16566 1-473): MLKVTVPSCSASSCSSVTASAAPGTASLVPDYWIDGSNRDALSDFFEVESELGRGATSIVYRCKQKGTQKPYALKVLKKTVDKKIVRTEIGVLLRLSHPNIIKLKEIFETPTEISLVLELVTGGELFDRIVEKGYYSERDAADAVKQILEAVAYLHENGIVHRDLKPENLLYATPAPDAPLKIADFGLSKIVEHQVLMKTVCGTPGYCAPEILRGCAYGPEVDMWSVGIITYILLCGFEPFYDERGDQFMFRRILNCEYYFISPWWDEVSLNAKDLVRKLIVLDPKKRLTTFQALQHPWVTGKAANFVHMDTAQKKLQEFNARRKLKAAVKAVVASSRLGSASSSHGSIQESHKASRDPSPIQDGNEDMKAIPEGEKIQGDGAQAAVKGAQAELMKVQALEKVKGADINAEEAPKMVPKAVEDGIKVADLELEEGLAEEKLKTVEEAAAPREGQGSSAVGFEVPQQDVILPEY

Sequence of PAK2(h) (Q13177 whole entry): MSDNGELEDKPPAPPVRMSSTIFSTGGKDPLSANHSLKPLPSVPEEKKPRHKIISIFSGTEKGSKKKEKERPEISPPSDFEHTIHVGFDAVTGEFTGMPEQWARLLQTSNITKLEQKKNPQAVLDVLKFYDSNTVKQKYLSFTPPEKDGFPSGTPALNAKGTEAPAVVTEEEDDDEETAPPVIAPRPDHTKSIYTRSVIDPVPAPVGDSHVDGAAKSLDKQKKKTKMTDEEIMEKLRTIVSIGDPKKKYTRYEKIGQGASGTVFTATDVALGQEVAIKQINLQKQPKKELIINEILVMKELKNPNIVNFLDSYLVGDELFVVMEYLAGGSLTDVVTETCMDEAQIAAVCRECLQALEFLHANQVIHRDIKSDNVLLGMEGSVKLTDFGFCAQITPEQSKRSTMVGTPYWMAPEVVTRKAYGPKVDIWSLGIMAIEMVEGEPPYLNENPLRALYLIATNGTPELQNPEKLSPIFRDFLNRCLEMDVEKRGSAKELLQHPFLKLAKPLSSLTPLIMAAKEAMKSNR
Sequence of CDK5/p25(h) (Q00535 whole entry): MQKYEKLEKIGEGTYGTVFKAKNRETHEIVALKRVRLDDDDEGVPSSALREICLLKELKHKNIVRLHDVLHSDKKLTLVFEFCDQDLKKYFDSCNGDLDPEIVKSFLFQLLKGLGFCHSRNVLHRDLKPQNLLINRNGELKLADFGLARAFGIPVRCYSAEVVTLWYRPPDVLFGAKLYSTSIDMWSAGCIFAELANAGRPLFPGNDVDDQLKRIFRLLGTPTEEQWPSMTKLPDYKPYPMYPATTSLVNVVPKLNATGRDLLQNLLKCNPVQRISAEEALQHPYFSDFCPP
Sequence of CDK5/p25(h) (Q15078 99-307 partner limits assumed): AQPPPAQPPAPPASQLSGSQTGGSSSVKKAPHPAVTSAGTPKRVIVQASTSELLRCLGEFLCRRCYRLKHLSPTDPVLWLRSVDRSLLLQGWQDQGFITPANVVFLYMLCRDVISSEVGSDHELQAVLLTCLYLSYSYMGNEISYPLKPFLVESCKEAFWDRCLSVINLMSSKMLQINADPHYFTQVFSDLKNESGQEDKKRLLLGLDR

Compound: CC(C)CCC(=O)[C@]1(O)C(O)=C(C(=O)C(C)C)C(=O)[C@H]1CCC(C)C [TH2, tetrahydroiso-cohumulone]
- kinase inhibition (CDK5/p25(h); 1 μg/ml): 93% of control
- kinase inhibition (CDK5/p25(h); 5 μg/ml): 96% of control
- kinase inhibition (CDK5/p25(h); 25 μg/ml): 103% of control
- kinase inhibition (CDK5/p25(h); 50 μg/ml): 88% of control
- kinase inhibition (CDK5/p25(h); 100 μg/ml): 77% of control
- kinase inhibition (Syk(h); 1 μg/ml): 135% of control
- kinase inhibition (Syk(h); 5 μg/ml): 120% of control
- kinase inhibition (Syk(h); 25 μg/ml): 63% of control
- kinase inhibition (Syk(h); 50 μg/ml): 37% of control
- kinase inhibition (Syk(h); 100 μg/ml): 47% of control
- kinase inhibition (PAK2(h); 1 μg/ml): 116% of control
- kinase inhibition (PAK2(h); 5 μg/ml): 110% of control
- kinase inhibition (PAK2(h); 25 μg/ml): 107% of control
- kinase inhibition (PAK2(h); 50 μg/ml): 101% of control
- kinase inhibition (PAK2(h); 100 μg/ml): 96% of control
- kinase inhibition (CaMKIIδ(h); 1 μg/ml): 99% of control
- kinase inhibition (CaMKIIδ(h); 5 μg/ml): 99% of control
- kinase inhibition (CaMKIIδ(h); 25 μg/ml): 100% of control
- kinase inhibition (CaMKIIδ(h); 50 μg/ml): 91% of control
- kinase inhibition (CaMKIIδ(h); 100 μg/ml): 87% of control
- kinase inhibition (Axl(h); 1 μg/ml): 106% of control
- kinase inhibition (Axl(h); 5 μg/ml): 110% of control
- kinase inhibition (Axl(h); 25 μg/ml): 100% of control
- kinase inhibition (Axl(h); 50 μg/ml): 86% of control
- kinase inhibition (Axl(h); 100 μg/ml): 65% of control
- kinase inhibition (CDK1/cyclinB(h); 1 μg/ml): 111% of control
- kinase inhibition (CDK1/cyclinB(h); 5 μg/ml): 111% of control
- kinase inhibition (CDK1/cyclinB(h); 25 μg/ml): 90% of control
- kinase inhibition (CDK1/cyclinB(h); 50 μg/ml): 86% of control
- kinase inhibition (CDK1/cyclinB(h); 100 μg/ml): 74% of control
- kinase inhibition (EGFR(T790M)(h); 1 μg/ml): 106% of control
- kinase inhibition (EGFR(T790M)(h); 5 μg/ml): 104% of control
- kinase inhibition (EGFR(T790M)(h); 25 μg/ml): 104% of control
- kinase inhibition (EGFR(T790M)(h); 50 μg/ml): 100% of control
- kinase inhibition (EGFR(T790M)(h); 100 μg/ml): 102% of control
- kinase inhibition (MSK1(h); 1 μg/ml): 98% of control
- kinase inhibition (MSK1(h); 5 μg/ml): 103% of control
- kinase inhibition (MSK1(h); 25 μg/ml): 92% of control
- kinase inhibition (MSK1(h); 50 μg/ml): 64% of control
- kinase inhibition (MSK1(h); 100 μg/ml): 52% of control
- kinase inhibition (MAPKAP-K2(h); 1 μg/ml): 116% of control
- kinase inhibition (MAPKAP-K2(h); 5 μg/ml): 104% of control
- kinase inhibition (MAPKAP-K2(h); 25 μg/ml): 104% of control
- kinase inhibition (MAPKAP-K2(h); 50 μg/ml): 74% of control
- kinase inhibition (MAPKAP-K2(h); 100 μg/ml): 73% of control
- kinase inhibition (Rsk3(h); 1 μg/ml): 112% of control
- kinase inhibition (Rsk3(h); 5 μg/ml): 106% of control
- kinase inhibition (Rsk3(h); 25 μg/ml): 97% of control
- kinase inhibition (Rsk3(h); 50 μg/ml): 88% of control
- kinase inhibition (Rsk3(h); 100 μg/ml): 85% of control
- kinase inhibition (CaMKIV(h); 1 μg/ml): 117% of control
- kinase inhibition (CaMKIV(h); 5 μg/ml): 126% of control
- kinase inhibition (CaMKIV(h); 25 μg/ml): 86% of control
- kinase inhibition (CaMKIV(h); 50 μg/ml): 69% of control
- kinase inhibition (CaMKIV(h); 100 μg/ml): 52% of control

From US20100137449A1, “SUBSTITUTED 1,3-CYCLOPENTADIONE MULTI-TARGET PROTEIN KINASE MODULATORS OF CANCER, ANGIOGENESIS AND THE INFLAMMATORY PATHWAYS ASSOCIATED THEREWITH” (METAPROTEOMICS, LLC, priority 2007, published 2010)
